From patent publication US20070128270A1 come the findings set out here.

Converted amounts (≈) assume the structure as drawn.

Series [1] in a line: physchem. Type of series: physicochemical. An excerpt: In fact, according to a preferred embodiment, the at least one surfactant is a blend of surfactants, more preferably a blend of sodium lauryl sulfate and polysorbate 80 (Tween 80). In a particularly preferred embodiment, the pharmaceutically acceptable additives further comprise at least one solubilizer. Preferably the solubilizer is povidone.

The nature of series [2]: Accelerated stability of capsules, HPLC potency and impurities. It is filed as physicochemical. To be noted: Initial. As for the experimental part: The accelerated stability of the capsules of Examples 1 and 2 was studied. The capsules were packaged in HDPE bottles and stored at 40° C./75% RH and under ICH option 2 light condition. The samples were assayed by HPLC for potency and impurities and by dissolution apparatus. […] No change in dissolution was also observed under all conditions.

Take `CNC(=O)c1c(-c2ccc(F)cc2)oc2cc(N(CCO)S(C)(=O)=O)c(C3CC3)cc12`: in series [1], the “solubility in aqueous medium at gastrointestinal pHs” value is given as “insoluble”. The molecule also showed a solubility in series [1] (Solubility) of 20 µg/mL (≈ 44.8 µM). Further, in series [2], the “Impurity (%) RRT: 1.06” value is under 0.05%, the “Impurity (%) RRT: 1.45” value was 0.13%, the “Impurity (%) RRT: 1.79” value is 0.05% and the “Impurity (%) RRT: 1.84” value is reported as 0.07%. Further, the “Strength (%)” value in series [2] is 99.2%.
